Assay results published in patent publication US4092420A, “Novel soft N-chloroamino alcohol derivatives exhibiting antibacterial activity” (INTERx Research Corporation, priority 1977, dated 1978).
Values after ≈ are worked out from the molar mass of the structure shown.

Legend:
P. aeruginosa [1] = assay: Minimal inhibitory concentration (MIC), Example V; format: cell-based; conditions: Pseudomonas aeruginosa
Method: (§1) THE ANTIBACTERIAL SCREEN - EXAMPLE V
(§2) THE ANTIBACTERIAL SCREEN - EXAMPLES W - Z (Autotiter IV)
(§3) (a) Compounds. All compounds to be screened are weighed (approx. 10 mg) on the day preceding the test date. Each compound is solubilized on the day of assay in appropriate solvent and diluted automatically in the Autotiter IV with distilled water (buffer can be employed here also).
(§4) Bacteria: Staphylococcus aureas Smith (or 209), Escherichia coli AB 1932-1, 1100/B22 and Vogel, Streptococcus pyogenes C203 Salmonella typhimurium 14028, Bacillus subtilis 6051-1, Klebsiella pneumoniae 10031, Pseudomonas aeruginosa 9027, Bordetella bronchiseptica 4617 and Staphylococcus epidermidis 12228.
(§5) (c) Inocula. Prior to utilization in the Autotiter IV, all bacteria are cultured for 18-20 hr. (37° C) in tryptose phosphate broth (TP), except, S. pyogenes C203, which is cultured in Brain Heart Infusion broth plus 10% normal horse serum. Immediately prior to testing, each culture is adjusted to an optical density of 0.10 (650 nm), employing a Bausch & Lomb Spectronic 20, and diluted subsequently into double strength medium to approximately 2 × 10^5 viable organisms per ml.
(§6) 1. An automated injector system dispenses 0.05 ml of diluent (sterile H2 O or buffer) to all cups of the autotiter trays from rows 2 through 7.
(§7) 2. The loops (for sequential dilutions of the compounds are moistened by immersion into 70% ethyl alcohol. After removal of excess alcohol by blotting, the loops are moved to the first row of cups in the autotray containing 0.10 ml of the compound to be diluted and tested (usually, this initial concentration is 500 to 1000 mcg/ml, but can be varied upward or downward). The loops are lowered and sequentially transfer the diluted solutions of the compound through row 7.
(§8) Immediately after each dilution is made, each cup is automatically inoculated with 0.05 ml of the appropriate test organism. This inoculation derives from a second injector system containing the organism in double-strength medium. The total operation consists of the automatic dilution of a single compound in each of 8 rows of the Autotiter try.
(§9) After these operations, we reverse the tray and a second compound is diluted over the other one-half of the tray and inoculated, subsequently, with 8 organisms. Thus, for each Autotiter Tray, two compounds are screened against 8 different organisms at dilutions ranging from 1:2 to 1:128.
(§10) (e) Incubation. The inoculated Autotiter trays are incubated at 37° C for 18 - 20 hr. At the end of this period, each tray is examined for the presence or absence of growth (turbidity). The lowest concentration of the compound inhibiting growth is recorded as the minimal inhibitory concentration (MIC).

S. aureus = assay: Minimal inhibitory concentration (MIC), Example V; format: cell-based; conditions: Staphylococcus aureus
Method: as §1, §2, §3, §4, §5, §6, §7, §8, §9, §10

S. pyogenes = assay: Minimal inhibitory concentration (MIC), Example V; format: cell-based; conditions: Streptococcus pyogenes
A. niger = assay: Minimal inhibitory concentration (MIC), Example V; format: cell-based; conditions: Aspergillus niger
Text: (§11) MINIMAL INHIBITORY CONCENTRATION OF 2-AMINO-2-METHYL-1-PROPYL
(§12) ^a Minimal inhibitory concentration expressed in parts per million
(§13) sequence inhibited the test organism at the higher concentrations.
as §1

E. coli = assay: Minimal inhibitory concentration (MIC), Example V; format: cell-based; conditions: Escherichia coli
Text: as §11, §12, §13, §1

T. mentagrophytes = assay: Minimal inhibitory concentration (MIC), Example V; format: cell-based; conditions: Trichophyton mentagrophytes
Text: as §11, §12, §13, §1

K. pneumoniae [2] = assay: Minimal inhibitory concentration (MIC), Example V; format: cell-based; conditions: Klebsiella pneumoniae
Method: as §11, §12, §13, §1
Klebsiella pneumoniae ATCC# 10031
as §2, §3, §4, §5, §6, §7, §8, §9, §10

C. albicans = assay: Minimal inhibitory concentration (MIC), Example V; format: cell-based; conditions: Candida albicans
Text: MINIMAL INHIBITORY CONCENTRATION OF 2-AMINO-2-METHYL-1-PROPYL […]
as §1

[3] = Solubility in 30% methanol: 0.1 M sodium dihydrogen phosphate, pH 7.0; format: physicochemical; conditions: 0.1 m nah2po4, pH 7, organic solvent or mixture, Concentration (footnote: Solubility in 30% methanol: 0.1 M sodium dihydrogen phosphate, pH 7.0)
S. epidermidis = assay: Contact germicidal efficiency (sterilization time); format: cell-based, Staphylococcus epidermidis
Method: (§14) CONTACT GERMICIDAL EFFICIENCY OF N-CHLORAMINES AS A FUNCTION
(§15) ^a Time intervals screened 0.5, 1, 2, 3, 4 and 5 minutes.
(§16) ^a Time intervals screened 0.5, 1, 2, 3, 4, 5, 6, 7, 8, 9 and 10
(§17) ^a Time intervals screened 0.5, 1, 2, 3, 4, and 5 minutes.
(§18) ^b Time intervals screened 0.5, 1, 2, 3, 4, 5, 6, 7, 8, 9 and 10
(§19) Immediately preceding the screen, the compound is weighed and diluted with a buffer or other solvent to give the final concentration desired. The buffer or solvent chosen depends on the conditions of the screen and could be one of the following: 0.1 M NaOAc, pH 4.6; 0.1 M NaH2 PO4, pH 7.0; 0.1 M Na2 B4 O7, pH 8.8; 35% methanol in one of the aforementioned buffers; 10% Triton × 100 in buffer, etc.
(§20) The positive chlorine concentration of the test solution is then determined iodometrically.
(§21) Media used for the Screen are Nutrient Broth, BBL# 11479 and Nutrient Agar, BBL# 11472 prepared according to label directions. The broth is dispensed in 75 ml amounts of flasks for overnight cultures and in 5 ml amounts to culture tubes for subculturing during the Screen. Agar plates are prepared as usual.
(§22) Overnight cultures are prepared by inoculating from stock cultures into the 75 ml flasks of nutrient broth and incubating for 15 hours at 37° C.
(§23) The iodometrically characterized test solution is dispensed in 5 ml amounts to seven small stoppered flasks. The organisms are screened one at a time as follows:
(§24) A 0.2 ml portion of the overnight culture is inoculated into 5 ml of 0.9% NaCl for use in controls. A 0.2 ml portion of the overnight culture is inoculated into a flask containing 5 ml of the test solution, an automatic timer is simultaneously triggered and the solution mixed. At time intervals of 30 seconds, 1, 2, 3, 4, 5, 6, 7, 8, 9, and 10 minutes a loopful of the inoculated solution is subcultured into 5 ml of sterile nutrient broth and mixed by a Vortex Genie Mixer, the high dilution serving to stop the action of the compound. At the end of the ten minute screen, the entire procedure is repeated for each of the remaining six organisms. All of the subculture tubes are incubated at 37° C and checked for signs of growth by turbidity at 24 hr., 48 hr., 3, 5, and 7 days. The earliest subculture time at which no growth is present in the subculture tube is considered the endpoint and is recorded as that time, e.g., 7 minutes.
(§25) The test solution is prepared and characterized as above but is made up at twice the concentration desired. The solution is diluted 1:1 with Rehydrated Tissue Culture Dessicated Horse Serum, Difco #5357-72 and dispensed in a 5 ml amount to a small flask. The mixture is incubated at Room Temperature for 30 minutes to allow denaturation of the compound by the serum and then screened as above.
(§26) The 5 ml mixture of serum and test solution are prepared in sequence to allow as close to 30 minutes as possible before the beginning of the screen of each organism.
as §4

K. pneumoniae [4] = assay: Contact germicidal efficiency (sterilization time); format: cell-based, Klebsiella pneumoniae
Method: as §14, §15, §16, §17, §18, §19, §20, §21, §22, §23, §24, §25, §26, §4

P. aeruginosa [5] = assay: Contact germicidal efficiency (sterilization time); format: cell-based, Pseudomonas aeruginosa
Method: as §14, §15, §16, §17, §18, §19, §20, §21, §22, §23, §24, §25, §26, §4

B. bronchiseptica = assay: Contact germicidal efficiency (sterilization time); format: cell-based, Bordetella bronchiseptica
Method: as §14, §15, §16, §17, §18, §19, §20, §21, §22, §23, §24, §25, §26, §4

[6] = Example X, pH 4.6, no horse serum, IV c 404 ppm (69 PPMCl+), IV g 489 ppm (143 PPMCl+)
[7] = Example X, pH 7.0, no horse serum, IV c 1886 ppm (323 PPMCl+), IV g 409 ppm (120 PPMCl+)
[8] = Example X, pH 9.3, no horse serum, IV c 1704 ppm (292 PPMCl+), IV g 319 ppm (94 PPMCl+)
[9] = Example Z, S. pidermidis, pH 4.6, absence of horse serum, IV j 79 ppm (21 PPMCl+), IV k 5800 (1057), IV l 1112 (209)
[10] = Example Z, pH 4.6, absence of horse serum, IV j 79 ppm (21 PPMCl+), IV k 5800 (1057), IV l 1112 (209)

Structure (SMILES) | MIC (P. aeruginosa [1]) [µg/mL] | MIC (S. aureus) [µg/mL] | MIC (S. pyogenes) [µg/mL] | MIC (A. niger) [µg/mL] | MIC (E. coli) [µg/mL] | MIC (T. mentagrophytes) [µg/mL] | MIC (K. pneumoniae [2]) [µg/mL] | MIC (C. albicans) [µg/mL] | other results
CCCC(=O)OCC(C)(C)N.Cl [III b, 2-Amino-2-methyl-1-propyl butyrate hydrochloride] | > 62.5 | > 62.5 | > 62.5 | > 62.5 | > 62.5 | > 62.5 | > 62.5 | > 62.5 | solubility [3]: 1070 µg/mL
CCCCCC(=O)OCC(C)(C)N.Cl [III d, 2-Amino-2-methyl-1-propyl hexanoate hydrochloride] | 62.5 | > 62.5 | 62.5 | > 62.5 | > 62.5 | > 62.5 | > 62.5 | > 62.5 | solubility [3]: 1040 µg/mL
CC(=O)OCC(C)(C)N(Cl)Cl [IV a, 2-N,N-Dichloroamino-2-methyl-1-propyl acetate] | 62.5 | > 62.5 | 62.5 | > 62.5 | > 62.5 | 62.5 | > 62.5 | > 62.5 | –
CCCC(=O)OCC(C)(C)NCl [IV b, 2-N-Chloroamino-2-methyl-1-propyl butyrate] | > 62.5 | > 62.5 | > 62.5 | > 62.5 | > 62.5 | > 62.5 | > 62.5 | > 62.5 | –
CCCCCC(=O)OCC(C)(C)NCl [IV d, 2-N-Chloroamino-2-methyl-1-propyl hexanoate] | > 62.5 | > 62.5 | > 62.5 | > 62.5 | > 62.5 | > 62.5 | > 62.5 | > 62.5 | –
CCCCCCCC(=O)OCC(C)(C)NCl [IV e, 2-N-Chloroamino-2-methyl-1-propyl octanoate] | > 62.5 | > 62.5 | > 62.5 | > 62.5 | > 62.5 | > 62.5 | > 62.5 | > 62.5 | –
CCCC(=O)OCC(C)(C)N(Cl)Cl [IV f, 2-N,N-Dichloroamino-2-methyl-1-propyl butyrate] | 62.5 (≈ 274 µM) | > 62.5 | 62.5 (≈ 274 µM) | > 62.5 | > 62.5 | > 62.5 | > 62.5 | > 62.5 | –
CC(C)(C)C(=O)OCC(C)(C)N(Cl)Cl [IV g, 2-N,N-Dichloroamino-2-methyl-1-propyl 2,2-dimethylproprionate] | 250 (≈ 1030 µM) | 250 (≈ 1030 µM) | 250 (≈ 1030 µM) | > 125 | > 125 | > 125 | > 125 | > 125 | Sterilization Time (S. epidermidis; Example X, S. epidermidis, pH 4.6, no horse serum, IV c 404 ppm (69 PPMCl+), IV g 489 ppm (143 PPMCl+)): 0.5 min; Sterilization Time (S. epidermidis; Example X, S. epidermidis, pH 7.0, no horse serum, IV c 1886 ppm (323 PPMCl+), IV g 409 ppm (120 PPMCl+)): 2 min; Sterilization Time (S. epidermidis; Example X, S. epidermidis, pH 9.3, no horse serum, IV c 1704 ppm (292 PPMCl+), IV g 319 ppm (94 PPMCl+)): 2 min; Sterilization Time (K. pneumoniae [4]; [6]): 0.5 min; Sterilization Time (K. pneumoniae [4]; [7]): 3 min; Sterilization Time (K. pneumoniae [4]; [8]): 2 min; Sterilization Time (P. aeruginosa [5]; [6]): 0.5 min; Sterilization Time (P. aeruginosa [5]; [7]): 0.5 min; Sterilization Time (P. aeruginosa [5]; [8]): 0.5 min; Sterilization Time (B. bronchiseptica; [6]): 1 min; Sterilization Time (B. bronchiseptica; [7]): 2 min; Sterilization Time (B. bronchiseptica; [8]): 2 min
CCCCCC(=O)OCC(C)(C)N(Cl)Cl [IV h, 2-N,N-Dichloroamino-2-methyl-1-propyl hexanoate] | > 62.5 | > 62.5 | 62.5 (≈ 244 µM) | > 62.5 | > 62.5 | 62.5 (≈ 244 µM) | > 62.5 | > 62.5 | –
CCCCCCCC(=O)OCC(C)(C)N(Cl)Cl [IV i, 2-N,N-Dichloroamino-2-methyl-1-propyloctanoate] | > 62.5 | 62.5 (≈ 220 µM) | 62.5 (≈ 220 µM) | > 62.5 | > 62.5 | 62.5 (≈ 220 µM) | > 62.5 | > 62.5 | –
CC(C)(COC(=O)c1cccnc1)N(Cl)Cl [IV j, 2-N,N-Dichloroamino-2-methyl-1-propyl nicotinate] | – | – | – | – | – | – | – | – | Sterilization Time (S. epidermidis; [9]): 3 min; Sterilization Time (K. pneumoniae [4]; [10]): 1 min; Sterilization Time (P. aeruginosa [5]; [10]): 2 min; Sterilization Time (B. bronchiseptica; [10]): 4 min
C[n+]1cccc(C(=O)OCC(C)(C)N(Cl)Cl)c1 [IV l, 2-N,N-Dichloroamino-2-methyl-1-propyl nicotinate methylfluorosulfonate] | – | – | – | – | – | – | – | – | Sterilization Time (S. epidermidis; [9]): 3 min; Sterilization Time (K. pneumoniae [4]; [10]): 5 min; Sterilization Time (P. aeruginosa [5]; [10]): 3 min; Sterilization Time (B. bronchiseptica; [10]): 5 min
